Test results: ChEMBL document CHEMBL5252648, “Design, synthesis and bioactivity evaluation of a series of quinazolinone derivatives as potent PI3Kγ antagonist” (Bioorg Med Chem, 2023)

Experiments:
[1] = biological target: Phosphatidylinositol 4,5-bisphosphate 3-kinase catalytic subunit gamma isoform (Homo sapiens, UniProt P48736); experiment: Antagonist activity at PI3Kgamma (unknown origin) assessed as inhibition rate at 20 nM using PIP2 as substrate in presence of ATP incubated for 30 to 60 mins by ADP-glo based luminescence assay relative to control; conditions: time 30-60 min
[2] = biological target: T1, Phosphatidylinositol 4,5-bisphosphate 3-kinase catalytic subunit delta isoform (Homo sapiens) (UniProt O00329); experiment: Antagonist activity at PI3Kdelta (unknown origin) assessed as inhibition rate at 20 nM using PIP2 as substrate in presence of ATP incubated for 30 to 60 mins by ADP-glo based luminescence assay relative to control; conditions: time 30-60 min
T1 sequence (whole entry): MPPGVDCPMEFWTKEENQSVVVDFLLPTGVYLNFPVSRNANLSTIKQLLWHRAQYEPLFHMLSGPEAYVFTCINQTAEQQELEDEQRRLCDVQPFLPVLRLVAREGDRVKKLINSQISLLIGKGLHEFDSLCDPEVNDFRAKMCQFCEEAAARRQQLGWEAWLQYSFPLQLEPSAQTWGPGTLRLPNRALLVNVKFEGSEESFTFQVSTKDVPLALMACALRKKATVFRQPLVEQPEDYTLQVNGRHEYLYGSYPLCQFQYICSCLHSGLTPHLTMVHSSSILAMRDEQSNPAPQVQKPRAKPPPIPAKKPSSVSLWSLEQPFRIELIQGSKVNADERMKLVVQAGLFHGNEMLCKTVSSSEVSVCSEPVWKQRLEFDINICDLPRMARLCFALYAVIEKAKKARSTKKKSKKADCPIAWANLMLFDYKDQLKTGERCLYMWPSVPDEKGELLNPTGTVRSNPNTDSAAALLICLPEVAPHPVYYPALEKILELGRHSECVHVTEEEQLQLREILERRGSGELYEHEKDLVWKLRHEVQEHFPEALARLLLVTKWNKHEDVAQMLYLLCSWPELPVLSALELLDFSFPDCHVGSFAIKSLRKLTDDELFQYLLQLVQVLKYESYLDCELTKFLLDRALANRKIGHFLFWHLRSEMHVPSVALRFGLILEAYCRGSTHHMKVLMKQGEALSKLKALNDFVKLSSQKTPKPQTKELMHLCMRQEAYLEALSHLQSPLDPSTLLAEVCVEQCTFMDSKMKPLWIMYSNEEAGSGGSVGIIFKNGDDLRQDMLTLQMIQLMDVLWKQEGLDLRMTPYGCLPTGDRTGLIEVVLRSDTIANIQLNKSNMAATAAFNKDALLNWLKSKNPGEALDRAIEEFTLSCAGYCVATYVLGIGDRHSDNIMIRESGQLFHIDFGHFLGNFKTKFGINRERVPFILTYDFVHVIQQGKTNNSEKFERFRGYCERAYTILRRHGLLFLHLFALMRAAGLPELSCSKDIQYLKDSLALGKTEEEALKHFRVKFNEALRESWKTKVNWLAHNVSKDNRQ

[3] = tested on: HepG2; experiment: Cytotoxicity against human HepG2 cells assessed as reduction in cell viability incubated for 24 hrs by CCK-8 assay; assay type: functional, cell-based; conditions: HepG2, 24 h
[4] = tested on: Jurkat; experiment: Cytotoxicity against human Jurkat cells assessed as reduction in cell viability incubated for 24 hrs by CCK-8 assay; assay type: functional, cell-based
[5] = tested on: THP-1; experiment: Cytotoxicity against human THP-1 cells assessed as reduction in cell viability incubated for 24 hrs by CCK-8 assay; assay type: functional, cell-based; conditions: THP-1, 24 h
[6] = tested on: A549; experiment: Cytotoxicity against human A549 cells assessed as reduction in cell viability incubated for 24 hrs by CCK-8 assay; assay type: functional, cell-based; conditions: A549, 24 h
[7] = tested on: Huh-7; experiment: Cytotoxicity against human Huh-7 cells assessed as reduction in cell viability incubated for 24 hrs by CCK-8 assay; assay type: functional, cell-based; conditions: Huh-7, 24 h
[8] = tested on: MCF7; experiment: Cytotoxicity against human MCF7 cells assessed as reduction in cell viability incubated for 24 hrs by CCK-8 assay; assay type: functional, cell-based; conditions: MCF7, 24 h
[9] = tested on: 4T1; experiment: Cytotoxicity against mouse 4T1 cells assessed as reduction in cell viability incubated for 24 hrs by CCK-8 assay; assay type: functional, cell-based; conditions: 4T1, 24 h
[10] = tested on: T47D; experiment: Cytotoxicity against human T47D cells assessed as reduction in cell viability incubated for 24 hrs by CCK-8 assay; assay type: functional, cell-based
[11] = tested on: RAW264.7; experiment: Cytotoxicity against mouse RAW264.7 cells assessed as reduction in cell viability incubated for 24 hrs by CCK-8 assay; assay type: functional, cell-based; conditions: RAW264.7, 24 h
[12] = tested on: MDA-MB-231; experiment: Cytotoxicity against human MDA-MB-231 cells assessed as reduction in cell viability incubated for 24 hrs by CCK-8 assay; assay type: functional, cell-based; conditions: MDA-MB-231, 24 h
[13] = tested on: B16-F10; experiment: Cytotoxicity against mouse B16-F10 cells assessed as reduction in cell viability incubated for 24 hrs by CCK-8 assay; assay type: functional, cell-based; conditions: B16-F10, 24 h
[14] = Cytotoxicity against mouse L929 cells assessed as reduction in cell viability incubated for 24 hrs by CCK-8 assay; assay type: toxicity, cell-based

Sequence of Phosphatidylinositol 4,5-bisphosphate 3-kinase catalytic subunit gamma isoform (P48736 whole entry, looked up, canonical isoform): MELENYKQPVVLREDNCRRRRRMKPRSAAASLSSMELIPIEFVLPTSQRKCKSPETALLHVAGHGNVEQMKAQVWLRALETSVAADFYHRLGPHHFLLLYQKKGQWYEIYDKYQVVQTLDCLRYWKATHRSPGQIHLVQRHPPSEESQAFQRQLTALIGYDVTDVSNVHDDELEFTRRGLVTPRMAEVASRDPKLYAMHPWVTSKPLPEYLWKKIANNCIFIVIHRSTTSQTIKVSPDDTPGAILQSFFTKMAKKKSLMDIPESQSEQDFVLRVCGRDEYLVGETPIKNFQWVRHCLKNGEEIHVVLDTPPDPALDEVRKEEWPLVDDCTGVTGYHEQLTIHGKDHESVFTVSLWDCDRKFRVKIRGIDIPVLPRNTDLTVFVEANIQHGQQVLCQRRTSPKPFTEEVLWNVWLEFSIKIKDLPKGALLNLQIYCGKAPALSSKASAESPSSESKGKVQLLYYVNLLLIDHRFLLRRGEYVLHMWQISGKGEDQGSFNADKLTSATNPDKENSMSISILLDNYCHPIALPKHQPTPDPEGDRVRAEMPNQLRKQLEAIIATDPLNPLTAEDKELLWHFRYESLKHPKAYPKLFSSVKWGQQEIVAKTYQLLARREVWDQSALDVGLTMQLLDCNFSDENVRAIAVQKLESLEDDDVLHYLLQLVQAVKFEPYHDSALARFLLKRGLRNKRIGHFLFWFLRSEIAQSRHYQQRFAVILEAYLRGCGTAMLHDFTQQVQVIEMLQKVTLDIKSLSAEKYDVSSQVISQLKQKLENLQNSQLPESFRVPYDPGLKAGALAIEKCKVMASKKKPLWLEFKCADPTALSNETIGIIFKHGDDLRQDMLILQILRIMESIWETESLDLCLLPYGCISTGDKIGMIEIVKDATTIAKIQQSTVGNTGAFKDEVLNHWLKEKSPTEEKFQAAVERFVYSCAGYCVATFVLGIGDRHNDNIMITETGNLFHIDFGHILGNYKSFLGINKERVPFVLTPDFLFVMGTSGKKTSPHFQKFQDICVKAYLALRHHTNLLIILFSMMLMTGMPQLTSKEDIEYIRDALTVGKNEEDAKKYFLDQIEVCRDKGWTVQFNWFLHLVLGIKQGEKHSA

Structure (SMILES)	inhibition [1] [%]	inhibition [2] [%]	further results
CC(NC(=O)c1c(N)nn2cccnc12)c1cc2cccc(C#CC3CC3)c2c(=O)n1-c1ccccc1 (stereo not drawn)	33	17	
CCCc1ccc(C#Cc2cccc3cc(C(C)NC(=O)c4c(N)nn5cccnc45)n(-c4ccccc4)c(=O)c23)cc1 (stereo not drawn)	22	27	
C[C@H](Nc1ncnc2nc[nH]c12)c1cc2cccc(Cl)c2c(=O)n1-c1ccccc1 [DUVELISIB]	37		IC50 [3]: > 100 µM; IC50 [4]: 3.17 µM; IC50 [5]: 14.9 µM; IC50 [6]: > 100 µM; IC50 [7]: 6.57 µM; IC50 [8]: > 100 µM; IC50 [9]: 22.9 µM; IC50 [10]: > 100 µM; inhibition ([2]; filed as antagonist): 66.7%; IC50 [11]: 13.2 µM; IC50 [12]: 9.76 µM; IC50 [13]: > 100 µM
COCC#Cc1cccc2cc(C(C)NC(=O)c3c(N)nn4cccnc34)n(-c3ccccc3)c(=O)c12 (stereo not drawn)	35	27	
CC(Nc1ncnc2[nH]cnc12)c1cc2cccc(C#Cc3ccc(N(C)C)cc3)c2c(=O)n1-c1ccccc1 (stereo not drawn)		14	inhibition ([1]; filed as antagonist): 46%
C[C@H](Nc1ncnc2[nH]cnc12)c1cc2cccc(Cl)c2c(=O)n1-c1ccccc1 [DUVELISIB]			IC50 at 24 h [14]: > 100 µM
CC(NC(=O)c1cnn2cccnc12)c1cc2cccc(C#Cc3ccccc3)c2c(=O)n1-c1ccccc1 (stereo not drawn)	24	22	
CC(NC(=O)c1cnn2cccnc12)c1cc2cccc(Cl)c2c(=O)n1-c1ccccc1 (stereo not drawn)	36	13	
COc1ccc(C#Cc2cccc3cc(C(C)NC(=O)c4c(N)nn5cccnc45)n(-c4ccccc4)c(=O)c23)cc1 (stereo not drawn)	31	19	
CC(NC(=O)c1cncc(N2CCOCC2)n1)c1cc2cccc(Cl)c2c(=O)n1-c1ccccc1 (stereo not drawn)	13	14	
CC(NC(=O)c1ccncc1N)c1cc2cccc(Cl)c2c(=O)n1-c1ccccc1 (stereo not drawn)	33	24	
CCCC#Cc1cccc2cc(C(C)NC(=O)c3c(N)nn4cccnc34)n(-c3ccccc3)c(=O)c12 (stereo not drawn)	24	29	
CCCCC#Cc1cccc2cc(C(C)Nc3ncnc4[nH]cnc34)n(-c3ccccc3)c(=O)c12 (stereo not drawn)	33	21	
CC(Nc1ncnc2[nH]cnc12)c1cc2cccc(C#CC3CC3)c2c(=O)n1-c1ccccc1 (stereo not drawn)			inhibition ([1]; filed as antagonist): 43%; inhibition ([2]; filed as antagonist): 44%
CC(NC(=O)c1cnn2cccnc12)c1cc2cccc(C#Cc3ccc(N(C)C)cc3)c2c(=O)n1-c1ccccc1 (stereo not drawn)	22	28	
CC(NC(=O)c1c(N)nn2cccnc12)c1cc2cccc(C#CCN)c2c(=O)n1-c1ccccc1 (stereo not drawn)	38	25	
COCC#Cc1cccc2cc(C(C)Nc3ncnc4[nH]cnc34)n(-c3ccccc3)c(=O)c12 (stereo not drawn)		26	inhibition ([1]; filed as antagonist): 41%
CC(Nc1ncnc2[nH]cnc12)c1cc2cccc(C#Cc3ccc(C(F)(F)F)cc3)c2c(=O)n1-c1ccccc1 (stereo not drawn)		14	inhibition ([1]; filed as antagonist): 44%

Now from value to compound, other results behind:

inhibition [1] [%]	inhibition [2] [%]	Structure (SMILES)	further results
27		CC(NC(=O)c1cnn2cccnc12)c1cc2cccc(C#Cc3ccc(C(F)(F)F)cc3)c2c(=O)n1-c1ccccc1 (stereo not drawn)	inhibition ([2]; filed as antagonist): 40%
2	3	CC(NC(=O)c1cncc2ccccc12)c1cc2cccc(Cl)c2c(=O)n1-c1ccccc1 (stereo not drawn)	
25	25	COc1ccc(C#Cc2cccc3cc(C(C)NC(=O)c4cnn5cccnc45)n(-c4ccccc4)c(=O)c23)cc1 (stereo not drawn)	
13	8	CCCc1ccc(C#Cc2cccc3cc(C(C)Nc4ncnc5[nH]cnc45)n(-c4ccccc4)c(=O)c23)cc1 (stereo not drawn)	
9	32	CC(NC(=O)c1cccc2c1OCCO2)c1cc2cccc(Cl)c2c(=O)n1-c1ccccc1 (stereo not drawn)	
11	8	CC(NC(=O)c1ccc2occc2c1)c1cc2cccc(Cl)c2c(=O)n1-c1ccccc1 (stereo not drawn)	
37	17	CC(NC(=O)c1c(N)nn2cccnc12)c1cc2cccc(C#Cc3ccc(C(F)(F)F)cc3)c2c(=O)n1-c1ccccc1 (stereo not drawn)	
28	18	CC(NC(=O)c1c(N)nn2cccnc12)c1cc2cccc(C#Cc3ccc(N(C)C)cc3)c2c(=O)n1-c1ccccc1 (stereo not drawn)	
35	28	CC(Nc1ncnc2c1ncn2C)c1cc2cccc(Cl)c2c(=O)n1-c1ccccc1 (stereo not drawn)	
27	25	CC(NC(=O)c1c(N)nn2cccnc12)c1cc2cccc(C#Cc3ccccc3)c2c(=O)n1-c1ccccc1 (stereo not drawn)	
	23	CC(Nc1ncnc2[nH]cnc12)c1cc2cccc(C#Cc3ccccc3)c2c(=O)n1-c1ccccc1 (stereo not drawn)	inhibition ([1]; filed as antagonist): 51%
